Test results: the NIST ThermoML archive (doi:10.1021/je101178u)
“And” between values parts separate entries of the source, which are not always exact repeats. Equal values may be shown once. Numbers after ± are expanded uncertainties.

Details: Fluid (supercritical or subcritical phases); for mass density: Buoyancy - hydrostatic balance with magnetic suspension - one sinker; for viscosity: vibrating wire

CC [ethane]
Details	mass density, 293.15 K	mass density, 307.15 K [kg/m3]	viscosity, 293.15 K	viscosity, 307.15 K
64.37 kPa	0.79811 ± 0.0028 kg/m3	–	0.009075 ± 5.5e-05 mPa·s and 0.009074 ± 5.5e-05 mPa·s	–
80.37 kPa	0.99778 ± 0.003 kg/m3	–	0.009076 ± 5.5e-05 mPa·s	–
80.42 kPa	0.99851 ± 0.003 kg/m3	–	0.009075 ± 5.5e-05 mPa·s	–
80.48 kPa	0.99923 ± 0.003 kg/m3	–	0.009073 ± 5.5e-05 mPa·s	–
92.55 kPa	–	1.0967 ± 0.0032	–	0.009492 ± 5.7e-05 mPa·s
92.62 kPa	–	1.0975 ± 0.0032	–	0.009489 ± 5.7e-05 mPa·s
97.81 kPa	–	1.1594 ± 0.0033	–	0.009507 ± 5.7e-05 mPa·s and 0.009508 ± 5.7e-05 mPa·s
160.1 kPa	2.0005 ± 0.0048 kg/m3	–	0.009083 ± 5.5e-05 mPa·s and 0.009082 ± 5.5e-05 mPa·s	–
160.16 kPa	2.0012 ± 0.0048 kg/m3	–	0.009082 ± 5.5e-05 mPa·s	–
160.18 kPa	–	1.907 ± 0.0046	–	0.00951 ± 5.7e-05 mPa·s and 0.009508 ± 5.7e-05 mPa·s
166.71 kPa	–	1.9856 ± 0.0047	–	0.009531 ± 5.7e-05 mPa·s
166.77 kPa	–	1.9863 ± 0.0047	–	0.009529 ± 5.7e-05 mPa·s
315.97 kPa	3.9991 ± 0.0087 kg/m3	–	0.009102 ± 5.5e-05 mPa·s	–
316.05 kPa	4.0002 ± 0.0087 kg/m3	–	0.009098 ± 5.5e-05 mPa·s and 0.009099 ± 5.5e-05 mPa·s	–
327.38 kPa	–	3.9439 ± 0.0086	–	0.009566 ± 5.7e-05 mPa·s
332.45 kPa	–	4.0065 ± 0.0087	–	0.009542 ± 5.8e-05 mPa·s and 0.009543 ± 5.8e-05 mPa·s
467.91 kPa	5.9992 ± 0.013 kg/m3	–	0.009118 ± 5.5e-05 mPa·s	–
467.96 kPa	5.9999 ± 0.013 kg/m3	–	0.009119 ± 5.5e-05 mPa·s	–
468.01 kPa	6.0006 ± 0.013 kg/m3	–	0.009118 ± 5.5e-05 mPa·s	–
493.91 kPa	–	6.0228 ± 0.013	–	0.009573 ± 5.8e-05 mPa·s
493.97 kPa	–	6.0235 ± 0.013	–	0.009572 ± 5.8e-05 mPa·s
615.93 kPa	8.0004 ± 0.017 kg/m3	–	0.009139 ± 5.5e-05 mPa·s and 0.009137 ± 5.5e-05 mPa·s	–
616.03 kPa	8.0018 ± 0.017 kg/m3	–	0.009137 ± 5.5e-05 mPa·s	–
649.95 kPa	–	8.0188 ± 0.017	–	0.009604 ± 5.8e-05 mPa·s
650.01 kPa	–	8.0195 ± 0.017	–	0.009604 ± 5.8e-05 mPa·s
759.69 kPa	9.9972 ± 0.021 kg/m3	–	0.009162 ± 5.5e-05 mPa·s and 0.009165 ± 5.5e-05 mPa·s	–
788.48 kPa	–	9.8322 ± 0.021	–	0.009663 ± 5.8e-05 mPa·s
788.7 kPa	–	9.8351 ± 0.021	–	0.009665 ± 5.8e-05 mPa·s
800.35 kPa	–	9.9895 ± 0.021	–	0.009635 ± 5.8e-05 mPa·s
800.41 kPa	–	9.9903 ± 0.021	–	0.009639 ± 5.8e-05 mPa·s and 0.009636 ± 5.8e-05 mPa·s
889.73 kPa	11.852 ± 0.025 kg/m3	–	0.009183 ± 5.5e-05 mPa·s and 0.009184 ± 5.5e-05 mPa·s	–
889.87 kPa	11.854 ± 0.025 kg/m3	–	0.009183 ± 5.5e-05 mPa·s	–
959.13 kPa	–	12.123 ± 0.026	–	0.009675 ± 5.8e-05 mPa·s
959.2 kPa	–	12.124 ± 0.026	–	0.009674 ± 5.8e-05 mPa·s
1036.2 kPa	14.001 ± 0.029 kg/m3	–	0.009212 ± 5.5e-05 mPa·s and 0.009213 ± 5.5e-05 mPa·s	–
1036.3 kPa	14.002 ± 0.029 kg/m3	–	0.009213 ± 5.5e-05 mPa·s	–
1094.4 kPa	–	13.987 ± 0.03	–	0.009709 ± 5.9e-05 mPa·s
1094.5 kPa	–	13.988 ± 0.03	–	0.00971 ± 5.9e-05 mPa·s
1167.2 kPa	15.979 ± 0.033 kg/m3	–	0.009246 ± 5.6e-05 mPa·s	–
1167.3 kPa	15.98 ± 0.033 kg/m3 and 15.981 ± 0.033 kg/m3	–	0.009243 ± 5.6e-05 mPa·s	–
1233.8 kPa	–	15.953 ± 0.034	–	0.009746 ± 5.9e-05 mPa·s
1233.9 kPa	–	15.955 ± 0.034	–	0.009746 ± 5.9e-05 mPa·s
1293.6 kPa	17.943 ± 0.038 kg/m3	–	0.009274 ± 5.6e-05 mPa·s	–
1293.8 kPa	17.946 ± 0.038 kg/m3	–	0.009275 ± 5.6e-05 mPa·s	–
1343.4 kPa	–	17.536 ± 0.038	–	0.009778 ± 5.9e-05 mPa·s
1420.8 kPa	19.979 ± 0.042 kg/m3	–	0.009305 ± 5.6e-05 mPa·s and 0.009308 ± 5.6e-05 mPa·s	–
1421 kPa	19.983 ± 0.042 kg/m3	–	0.00931 ± 5.6e-05 mPa·s	–
1469.3 kPa	–	19.394 ± 0.041	–	0.009855 ± 5.9e-05 mPa·s
1469.5 kPa	–	19.396 ± 0.041	–	0.009856 ± 5.9e-05 mPa·s
1502.4 kPa	–	19.889 ± 0.044	–	0.00983 ± 5.9e-05 mPa·s and 0.009828 ± 5.9e-05 mPa·s
1992.4 kPa	30.002 ± 0.063 kg/m3	–	0.009506 ± 5.7e-05 mPa·s	–
1992.5 kPa	30.004 ± 0.063 kg/m3	–	0.009506 ± 5.7e-05 mPa·s	–
1992.6 kPa	30.006 ± 0.063 kg/m3	–	0.009505 ± 5.7e-05 mPa·s	–
2477.2 kPa	40.017 ± 0.085 kg/m3	–	0.009749 ± 5.9e-05 mPa·s	–
2477.4 kPa	40.022 ± 0.085 kg/m3	–	0.009748 ± 5.9e-05 mPa·s	–
2477.6 kPa	40.026 ± 0.085 kg/m3	–	0.009748 ± 5.9e-05 mPa·s	–
2879.7 kPa	49.983 ± 0.11 kg/m3	–	0.01003 ± 6e-05 mPa·s	–
2879.9 kPa	49.988 ± 0.11 kg/m3	–	0.01003 ± 6e-05 mPa·s	–
3212.1 kPa	60.071 ± 0.13 kg/m3	–	0.01036 ± 6.2e-05 mPa·s	–
3212.2 kPa	60.073 ± 0.13 kg/m3	–	0.01036 ± 6.2e-05 mPa·s	–
3212.3 kPa	60.079 ± 0.13 kg/m3	–	0.01036 ± 6.2e-05 mPa·s	–
3471.9 kPa	70.014 ± 0.15 kg/m3	–	0.01073 ± 6.5e-05 mPa·s	–
3472 kPa	70.02 ± 0.15 kg/m3	–	0.01073 ± 6.5e-05 mPa·s	–
3472.2 kPa	70.027 ± 0.15 kg/m3	–	0.01073 ± 6.5e-05 mPa·s	–
3577.6 kPa	74.947 ± 0.16 kg/m3	–	0.01093 ± 6.6e-05 mPa·s	–
3577.8 kPa	74.957 ± 0.16 kg/m3	–	0.01092 ± 6.6e-05 mPa·s	–
